One compound from publication PMC4766415 (Nature Communications, 2016) can be followed below.

The experiment concerns T1, human V30M-TTR.
T1 construct: plasma samples from the transgenic mice expressing human V30M-TTR; from tissue; host or cells: plasma of transgenic mice expressing human V30M-TTR
Briefly: T4 competition in plasma of transgenic mice after oral tolcapone. As to conditions: 30 to 300 mg kg^−1 by gavage. Type of experiment: in vivo. How it is done:
The animals were killed 1 h after the last dose. Plasma samples were obtained before dosing (t=0) and at the end of the experiment. T4 competition assays by native gel electrophoresis were performed in plasma following the same protocol as in Fig. 4a. At basal conditions (t=0), around 40% of the total radioactivity was associated with the TTR band in samples from all animals.
Plasma samples were treated with radiolabelled T4 and subjected to native PAGE. The fraction of radiolabelled T4 bound to the band corresponding to TTR is represented. Error bars indicate s.e.m. (n=4). (b) TTR tetramer stability in the plasma of control and tolcapone-treated transgenic mice was assessed by IEF under semi-denaturing conditions. The ratio between the TTR tetramers and the rest of the TTR species in the IEF gels was calculated for controls and tolcapone-treated mice. The data are expressed as fold increase of the ratio TTR tetramer/total TTR with respect to samples from vehicle-treated animals. ***P<0.001 and **P<0.01 (Student's t-test). Error bars indicate s.e.m. (n=3). […] TTR stabilization was quantified by immunoturbidity after urea denaturation with subsequent crosslinking with glutaraldehyde as detailed in the experimental section. […] White bars correspond to plasma samples crosslinked 0 h after urea addition, black bars correspond to plasma samples crosslinked after 48 h of urea denaturation. […]

Take `Cc1ccc(C(=O)c2cc(O)c(O)c([N+](=O)[O-])c2)cc1` [tolcapone]: the “amount of T4 remaining bound to TTR at the end of treatment” value is given as “decreased in a dose-dependent manner”.
